Reference: US11439637B2, “Antiproliferative compounds and bispecific antibody against BCMA and CD3 for combined use” (Celgene Corporation, priority 2018, dated 2022)
“Also recorded” adds a separate entry of the source.

What was measured:
[1] = test system: multiple myeloma H929 cell line; test: Co-cultures of effector T cells and target cells after pretreatment with compounds, bispecific antibody-induced target cell killing (H929); type: cell-based, human; details: H929 target cells pretreated with Compound 2 (1 nM) for 72 hours, washed; co-culture 72 hours, E:T 1:3; vs DMSO
Protocol: (§1) CD3+ T-cells were isolated from peripheral blood mononuclear cell fractions from healthy donors using magnetic-activated cell sorting. Cells were thawed in RPMI 1640 culture media supplemented with 10% (v/v) fetal bovine serum (FBS), non-essential amino acids and sodium pyruvate. All cell cultures and cell treatments were performed in a 37° C., 5% CO2 incubator for time periods as indicated. T-cells were then labeled with CFSE (carboxyfluorescein succinimidyl ester) according to the manufacturer's instructions, and allowed to recover overnight in the presence of 1 ng/mL human IL-7. T-cells were treated with DMSO (control) or Compound 2 as single agent for 16 hours before co-culture. The multiple myeloma H929 and OPM-2 cell lines or the plasma cell leukemia (PCL) cell line L363 were labeled with CellTrace™ Violet, then pretreated with DMSO (control) or Compound 2 as a single agent for 72 hours. T-cells and target cells were then washed to remove compounds and co-cultured in the presence of increasing concentrations of a bispecific antibody specifically binding to human B cell maturation antigen (BCMA) and to human CD3ε (CD3) as provided herein, for 72 hours, at different effector T-cell (E) to target cell (T) ratios. […]

[2] = test system: plasma cell leukemia (PCL) cell line L363; test: Co-cultures of effector T cells and target cells after pretreatment with compounds, bispecific antibody-induced target cell killing (L363); type: cell-based, human; details: L363 target cells pretreated with Compound 2 (1 nM) for 72 hours, washed; co-culture 72 hours, E:T 1:1; vs DMSO
Protocol: as §1

[3] = test system: multiple myeloma OPM-2 cell line; test: Co-cultures of effector T cells and target cells after pretreatment with compounds, cytotoxicity assays with OPM-2 cells; type: cell-based, human; details: E:T 1:5
Protocol: CD3+ T-cells were isolated from peripheral blood mononuclear cell fractions from healthy donors using magnetic-activated cell sorting. Cells were thawed in RPMI 1640 culture media supplemented with 10% (v/v) fetal bovine serum (FBS), non-essential amino acids and sodium pyruvate. All cell cultures and cell treatments were performed in a 37° C., 5% CO2 incubator for time periods as indicated. T-cells were then labeled with CFSE (carboxyfluorescein succinimidyl ester) according to the manufacturer's instructions, and allowed to recover overnight in the presence of 1 ng/mL human IL-7. T-cells were treated with DMSO (control) or Compound 2 as single agent for 16 hours before co-culture. The multiple myeloma H929 and OPM-2 cell lines or the plasma cell leukemia (PCL) cell line L363 were labeled with CellTrace™ Violet, then pretreated with DMSO (control) or Compound 2 as a single agent for 72 hours. T-cells and target cells were then washed to remove compounds and co-cultured in the presence of increasing concentrations of a bispecific antibody specifically binding to human B cell maturation antigen (BCMA) and to human CD3ε (CD3) as provided herein, for 72 hours, at different effector T-cell (E) to target cell (T) ratios. The cells were collected at the end of co-culture for analysis of target cell apoptosis and necrosis by flow cytometry using APC Annexin V Apoptosis Detection Kit with 7-AAD, following the manufacturer's directions (BioLegend).

[4] = test system: multiple myeloma H929 cell line; test: Co-cultures of effector T cells and target cells with concurrent compound treatments; type: cell-based, human; details: concurrent exposure to Compound 2 (1 nM) for 72 hours, T-cells of three donors, E:T 1:3, vs DMSO
Protocol: CD3+ T-cells were isolated from peripheral blood mononuclear cell fractions from three different healthy donors (donors A, B and C) using magnetic-activated cell sorting. Cells were thawed in RPMI 1640 culture media supplemented with 10% (v/v) FBS, non-essential amino acids, sodium pyruvate and penicillin/streptomycin. All cell cultures and treatments were performed in a 37° C., 5% CO2 incubator for time periods as indicated. T-cells were then labeled with CFSE (carboxyfluorescein succinimidyl ester) according to the manufacturer's instructions, and allowed to recover overnight in the presence of 1 ng/mL human IL-7. The multiple myeloma H929 cell line was labeled with CellTrace™ Violet, and allowed to recover overnight. T-cells and target cells were then washed and co-cultured in the presence of increasing concentrations of bispecific antibody specifically binding to human B cell maturation antigen (BCMA) and to human CD3ε (CD3) provided herein, for 72 hours, at a fixed effector T-cell (E) to target cell (T) ratio of 1:3. Co-cultures in the presence of bispecific antibody were performed in the presence of DMSO (control) or Compound 2. Cells were collected at the end of co-culture for analysis of target cell apoptosis and necrosis by flow cytometry using APC Annexin V Apoptosis Detection Kit with 7-AAD.

[5] = test system: lenalidomide-resistant multiple myeloma cell line H929-1051; test: Co-cultures of effector T cells and lenalidomide-resistant multiple myeloma target cells after pretreatment with compounds; type: cell-based, human; details: H929-1051 target cells pretreated 72 hours with Compound 2 (1 nM) or pomalidomide (100 nM), washed; co-culture 72 hours, E:T 1:3; vs DMSO
From the text: Co-cultures of effector T cells (E) and lenalidomide-resistant multiple myeloma target cells (T) after pretreatment with compounds. CD3+ T-cells were isolated from peripheral blood mononuclear cell fractions from three different healthy donors (donors D, E and F) using magnetic-activated cell sorting. Cells were thawed in RPMI 1640 culture media supplemented with 10% (v/v) fetal bovine serum (FBS), non-essential amino acids, sodium pyruvate and penicillin/streptomycin. All cell cultures and cell treatments were performed in a 37° C., 5% CO2 incubator for time periods as indicated. T-cells were then labeled with CFSE (carboxyfluorescein succinimidyl ester) according to the manufacturer's instructions, and allowed to recover overnight in the presence of 1 ng/mL human IL-7. The lenalidomide-resistant multiple myeloma cell line H929-1051 was generated by long-term culture in the presence of increasing concentrations of lenalidomide, as previously described (Ghandi et al. Br. J. Haematol. 2014 January; 164(2):233-44) using methods described (Lopez-Girona et al. Leukemia. 2012 November; 26(11):2326-35). H929-1051 cells were labeled with CellTrace™ Violet, then pretreated with DMSO (control), pomalidomide, or Compound 2 as a single agent for 72 hours. T-cells and target cells were then washed to remove compounds and co-cultured in the presence of increasing concentrations of the bispecific antibody specifically binding to human B cell maturation antigen (BCMA) and to human CD3ε (CD3) as provided herein, for 72 hours, at a fixed effector T-cell (E) to target cell (T) ratio of 1:3. The cells were collected at the end of co-culture for analysis of target cell apoptosis and necrosis by flow cytometry using APC Annexin V Apoptosis Detection Kit with 7-AAD, following the manufacturer's directions (BioLegend).

[6] = test system: acute myeloid leukemia (AML); details: administered alone; cited from earlier work
[7] = combination of effector T-cell pretreatment and target cell pretreatment with Compound 2 (1 nM)
[8] = either effector T-cells (16 hours) or target cells (72 hours) alone pretreated with Compound 2 (1 nM)

| Molecule | maximal target cell killing induced by the bispecific antibody [1] | potency of the bispecific antibody [1] | potency of the bispecific antibody [2] | efficacy of the bispecific antibody [3, 7] | potentiation of the bispecific antibody [3, 7] | efficacy of target cell killing by the bispecific antibody [3, 8] | potency of target cell killing by the bispecific antibody [3, 8] | maximal efficacy of target cell killing mediated by the bispecific antibody [4] | potency of the bispecific antibody [4] | maximal target cell killing induced by the bispecific antibody [5] | potency of the bispecific antibody [5] | response in treating acute myeloid leukemia (AML) at relapse [6] |
| --- | --- | --- | --- | --- | --- | --- | --- | --- | --- | --- | --- | --- |
| N#Cc1ccc(N2CCN(Cc3ccc(COc4cccc5c4CN([C@H]4CCC(=O)NC4=O)C5=O)cc3)CC2)c(F)c1 [Compound 2, (S)-4-(4-(4-(((2-(2,6-dioxopiperidin-3-yl)-1-oxoisoindolin-4-yl)oxy)methyl)benzyl)piperazin-1-yl)-3-fluorobenzonitrile] | significantly increased | significantly increased | significantly increased | increase in efficacy | greatest potentiation | increased | increased | improved; also recorded: enhances | significantly increased; also recorded: enhances | increased; also recorded: enhances | increased; also recorded: enhances |  |
| Nc1cccc2c1C(=O)N(C1CCC(=O)NC1=O)C2=O (stereo not shown) [pomalidomide, reference compound] |  |  |  |  |  |  |  |  |  | not |  |  |
| CT-011: anti-PD-1 antibody, a humanized antibody |  |  |  |  |  |  |  |  |  |  |  | failed to show response |
